Laboratory results: ChEMBL document CHEMBL1148896, “BI-32169, a bicyclic 19-peptide with strong glucagon receptor antagonist activity from Streptomyces sp” (J Nat Prod, 2004)
Bridge positions count the residues as written; N and C are the ends. Peptide text beside a SMILES is read from it. I, II: the chains in the order shown.

What follows are compounds tested against Glucagon receptor (Homo sapiens, UniProt P47871) (assay: Antagonist activity at human glucagon receptor expressed in BHK21 cells assessed as inhibition of glucagon-induced cAMP elevation by RIA).
Glucagon receptor, sequence (P47871 whole entry): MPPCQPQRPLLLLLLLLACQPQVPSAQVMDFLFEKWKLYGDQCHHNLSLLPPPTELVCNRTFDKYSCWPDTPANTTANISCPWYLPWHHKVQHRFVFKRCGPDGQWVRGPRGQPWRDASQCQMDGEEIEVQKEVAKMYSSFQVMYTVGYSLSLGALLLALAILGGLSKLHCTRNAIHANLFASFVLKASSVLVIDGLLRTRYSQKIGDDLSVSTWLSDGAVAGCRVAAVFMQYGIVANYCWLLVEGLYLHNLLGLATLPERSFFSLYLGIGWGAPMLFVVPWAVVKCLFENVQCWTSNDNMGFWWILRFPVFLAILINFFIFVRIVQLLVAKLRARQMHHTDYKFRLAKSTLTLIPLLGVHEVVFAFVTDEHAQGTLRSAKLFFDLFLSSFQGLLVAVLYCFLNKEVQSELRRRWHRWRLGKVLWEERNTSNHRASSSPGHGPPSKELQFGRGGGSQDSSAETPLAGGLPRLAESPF
Assay type: functional, cell-based, BHK-21
Compound `CC[C@H](C)[C@@H]1NC(=O)[C@@H]2CC(=O)NCC(=O)N[C@@H](CC(C)C)C(=O)N3CCC[C@H]3C(=O)N[C@@H](Cc3c[nH]c4ccccc34)C(=O)NCC(=O)N[C@@H](CSSC[C@@H](C(=O)O)NC(=O)[C@H](C)NC(=O)[C@H](Cc3c[nH]c4ccccc34)NC(=O)[C@@H]3CCCN3C(=O)[C@H]([C@@H](C)O)NC(=O)[C@H](CC(N)=O)NC(=O)[C@H](Cc3c[nH]c4ccccc34)NC(=O)CNC(=O)[C@@H]3CCCN3C1=O)C(=O)N1CCC[C@H]1C(=O)N[C@@H](CO)C(=O)N2` (GLPWGCPSDIPGWNTPWAC-OH; disulfide 6-19; lactam N-9) has an IC50 of 440 nM. Compound `CC1CC(=O)c2c(cc3c(-c4c(O)cc(O)c5c(O)c6c(cc45)OC(C)CC6=O)c(O)cc(O)c3c2O)O1` (stereo not drawn) [CEPHALOCHROMIN] has an IC50 of 20000 nM. For `CC[C@H](C)[C@@H]1NC(=O)C[C@@H]2NC(=O)[C@H](CO)NC(=O)[C@@H]3CCCN3C(=O)[C@H](CSSC[C@@H](C(=O)OC)NC(=O)[C@H](C)NC(=O)[C@H](Cc3c[nH]c4ccccc34)NC(=O)[C@@H]3CCCN3C(=O)[C@H]([C@@H](C)O)NC(=O)[C@H](CC(N)=O)NC(=O)[C@H](Cc3c[nH]c4ccccc34)NC(=O)CNC(=O)[C@@H]3CCCN3C1=O)NC(=O)CNC(=O)[C@H](Cc1c[nH]c3ccccc13)NC(=O)[C@@H]1CCCN1C(=O)[C@H](CC(C)C)NC(=O)CNC2=O` (I: IPGWNTPWAC-OMe / II: cyclo(CPSDGLPWG); disulfide I:10-II:1; amide I:N-II:4), the IC50 was 320 nM.
